Data reported in patent publication US8420653B2, “Pyrimidine compounds and their uses” (Orchid Chemicals & Pharmaceuticals Limited, priority 2008, dated 2013).
Read-outs that look alike come from different tables or passages of the source.

Legend:
TNF-α = assay: In vitro measurement of TNF-α in human PBMC; format: cell-based; conditions: for inhibition at 1 µM: Conc. (1 μM); for inhibition at 10 µM: Conc. (10 μM)
Method: In Vitro Measurement of TNF-α in Human Peripheral Blood Mononuclear Cells
This assay determines the effect of test compounds on the production of TNF a in human Peripheral Blood Mononuclear Cells (PBMC). Compounds were tested for their ability to inhibit the activity of TNF α in human PBMC. PBMC were isolated from blood (of healthy volunteers) using BD Vacutainer CPT™ (Cell preparation tube, BD Bio Science) and suspended in RPMI medium (Physiol. Res. 52, 593-598, 2003). The test compounds were pre-incubated with PBMC (0.5 million/incubation well) for 15 minutes at 37° C. and then stimulated with Lipopolysaccharide (Escherichia coli: B4; 1 μg/ml) for 18 hours at 37° C. in 5% CO2. The levels of TNF-α in the cell culture medium were estimated using enzyme-linked immunosorbent assay performed in a 96 well format as per the procedure of the manufacturer (Cayman Chemical, Ann Arbor, USA).

IL-1β = IL-1β inhibition (Table XVa); format: cell-based; conditions: Table XVa summary
PDE4 = tested on: T1, PDE4; assay: PDE4 activity (source human U937 cells); format: biochemical; conditions: for PDE4 inhibition at 10 μM (%): source human U937 cells; for PDE4 at 10 μm: Table XVb summary
T1 construct: other: 10 μM, source human U937 cells; PDE4 at 10 μm
Method: PDE4 inhibition was measured by following a literature assay procedure (Cortizo J et al., Br J. Pharmacol., 1993, 108: 562-568. The assay method involves the following conditions.
Substrate: 1.01 μM [^3H] camp+camp
Pre-Incubation Time/Temperature: 15 minutes at 25° C.
Incubation Time/Temperature. 20 minutes at 25° C.
Incubation buffer: 50 mM Tris-HCl, pH 7.5, 5 mM MgCl2
Quantitation method: Quantitation of [^3H] Adenosine
Significance criteria: ≧50% of max stimulation or inhibition

HCT-116 = assay: Anti-cancer screen (MTT), HCT-116; format: cell-based; conditions: Homo sapiens
Method: Experimental drugs are screened for anti-cancer activity in three cell lines for their GI50, TGI and LC50 values (using 5 concentrations for each compound). The cell lines are maintained in DMEM containing 10% fetal bovine serum. 96 well microtiter plates are inoculated with cells in […] for 24 hours at 37° C., 5% CO2, 95% air and 100% relative humidity. 5000 HCT116 cells/well, 5000 NCIH460 cells/well, 10000 U251 cells/well and 5000 MDAMB231 cells/well are plated. A separate plate with these cell lines is also inoculated to determine cell viability before the addition of the compounds (T0).
Following 24-hour incubation, experimental drugs are added to the 96 well plates. Each plate contains one of the above cell lines and the following in triplicate: 5 different concentrations (0.01, 0.1, 1, 10 and 100 μM) of 4 different compounds, appropriate dilutions of a cytotoxic standard and control (untreated) wells. Compounds are dissolved in dimethylsulfoxide (DMSO) to make 20 mM stock solutions, on the day of drug addition and frozen at −20° C. Serial dilutions of these 20 mM stock solutions are made in complete growth medium such that 100 μL of these drug solutions in medium, of final concentrations equaling 0.01, 0.1, 1, 10 and 100 μM can be added to the cells in triplicate. Standard drugs whose anti-cancer activity has been well documented and which are regularly used are doxorubicin and SAHA.
Cells are incubated with compounds for 48 hours followed by the addition of 10 μL 3-(4,5-Dimethyl-2-thiazolyl)-2,5-diphenyl-2H-tetrazolium (MTT) solution per well and a subsequent incubation at 37° C., 5% CO2, 95% air and 100% relative humidity, protected from light. After 4 hours, well contents are aspirated carefully followed by addition of 150 μL DMSO per well. Plates are agitated to ensure solution of the formazan crystals in DMSO and absorbance read at 570 nm.
Percent growth is calculated for each compound's concentration relative to the control and zero measurement wells (T0; viability right before compound addition). If a test well's O.D. value is greater than the T0 measurement for that cell line % Growth=(test−zero)/(control−zero)×100
If a test well's O.D. value is lower than the T0 measurement for that cell line, then: % Growth=(test−zero)/zero×100
Plotting % growth versus experimental drug concentration, GI50 is the concentration required to decrease % growth by 50%; TGI is the concentration required to decrease % growth by 100% and LC50 is the concentration required to decrease % growth by 150%.

[1] = 48 hours, MTT, read-out: GI50 (μM) HCT-116
[2] = Table XVb summary, for HCT, read-out: Cancer cell lines DU, HCT, NCI (Mean GI50, μm), HCT

Row | Compound | inhibition at 1 µM (TNF-α) | inhibition at 10 µM (TNF-α) | IL-1β at 10 μm (IL-1β) | PDE4 inhibition at 10 μM (%) (PDE4) | PDE4 at 10 μm (PDE4) | GI50 (HCT-116; [1]) | GI50 (HCT-116; [2])
1 | CCOC(=O)C1CCN(c2nc(C(F)(F)F)nc(-c3ccc(F)cc3)c2-c2cccc(S(N)(=O)=O)c2)CC1 [Example 59, Ethyl-1-[5-(3-aminosulfonylphenyl)-6-(4-fluorophenyl)-2-(trifluoromethyl)pyrimidin-4-yl]piperidine-4-carboxylate] | 87% | 92% | 29 | 93% | 87 | > 100 µM | > 100 µM
2 | NS(=O)(=O)c1cccc(-c2c(-c3ccc(F)cc3)nc(C(F)(F)F)nc2-n2ccnc2)c1 [Example 80, 3-[4-(4-Fluorophenyl)-6-(1H-imidazol-1-yl)-2-(trifluoromethyl)pyrimidin-5-yl]benzenesulfonamide] | 50% | 78% | 36 | 87% | 93 | > 100 µM | > 100 µM
